Assay results published in patent US20230116760A1, “STRUCTURALLY-STABILIZED ONCOLYTIC PEPTIDES AND USES THEREOF” (Dana-Farber Cancer Institute, Inc., priority 2019, published 2023).
Bridge positions count the residues as written; N and C are the ends. Square brackets hold non-standard residues; d marks the D form. Peptide text beside a SMILES is read from it. S5 = C=CCCC[C@](C)(N)C(=O)O; Nle = CCCC[C@H](N)C(=O)O

Key:
[1] = system: leukemia cells (e.g. U937, OCI-AML3 and MV4;11 cells); assay type: cell-based; conditions: 24 h
Experimental: (§1) LDH release assay: To assess the release of lactate dehydrogenase (LDH) upon treatment with a structurally-stabilized peptide described herein, an LDH release assay can be used. Cultured cells, including, e.g., cancer cells and HUVEC cells, are plated in 96-well format (2×10^4 cells per well; including overnight incubation for adherent cells) and then treated with serial dilutions of structurally-stabilized peptides in a final volume in a final volume of 100 μL and incubated at 37° C. for the indicated time period (e.g., 90 minutes). The plates are spun down at 1500 rpm for 5 minutes at 4° C., and 80 μL of cell culture media is transferred to a clear plate (Corning), incubated with 80 μL of LDH reagent (Roche) for 15 minutes while shaking, and absorbance is measured at 490 nm on a microplate reader (SpectraMax M5 Microplate Reader, Molecular Devices). LDH release assays, as tailored to specific cancer cell types (OCI-AML3 cells and primary human pediatric B-ALL cells), are exemplified below.
LDH release assay: Cultured cells, including cancer cells and HUVEC cells, were plated in 96-well format (2×10^4 cells per well; including overnight incubation for adherent cells) and then treated with serial dilutions of Mag(i+4) peptides in a final volume in a final volume of […] and incubated at 37° C. for the indicated time period. […]

[2] = mice; Mourtada et al., Nature Biotech, 2019; cited from earlier work
red blood cells (RBCs) = assay type: cell-based, human
Experimental: RBC hemolysis assay: To assess the hemolytic activity of a structurally-stabilized peptide described herein, a red blood cell (RBV) hemolysis assay can be used. Human blood samples are centrifuged to isolate RBCs, which are then washed and suspended in phosphate-buffered saline to yield a 1% (v/v) suspension. The suspension is added to serial dilutions of peptide stocks in water in clear round-bottom polypropylene 96-well plates and the plates incubated for 1 hour at 37° C. The plates are then centrifuged and the supernatant isolated to determine the amount of hemoglobin released using a spectrophotometer (570 nm). Percent hemolysis is calculated as: ([Treated Absorbance−Untreated Control Absorbance]×100)/(1% Triton X-100 Treated Absorbance−Untreated Control Absorbance).
Stapled oncolytic peptide synthesis: Fmoc-based solid-phase peptide synthesis was used to synthesize stapled antimicrobial peptides in accordance with previously reported methods for generating all-hydrocarbon stapled peptides. To achieve the various staple lengths, α-methyl, α-alkenyl amino acids were installed at i, i+4 positions using two S-pentenyl alanine residues (S5). For the stapling reaction, Grubbs 1st generation ruthenium catalyst dissolved in dichloroethane was added to the resin-bound peptides. To ensure maximal conversion, three to five rounds of stapling were performed. The peptides were then cleaved off of the resin using trifluoroacetic acid, precipitated using a hexane:ether (1:1) mixture, air dried, and purified by LC-MS. All peptides were quantified by amino acid analysis. RBC hemolysis assay: Human blood samples were centrifuged to isolate red blood cells (RBCs), which were then washed and suspended in phosphate-buffered saline to yield a 1% (v/v) suspension. The suspension was added to serial dilutions of peptide stocks in water in clear round-bottom polypropylene 96-well plates and the plates incubated for 1 hour at 37° C. The plates were then centrifuged and the supernatant isolated to determine the amount of hemoglobin released using a spectrophotometer (570 nm). Percent hemolysis was calculated as: ([Treated Absorbance−Untreated Control Absorbance]×100)/(1% Triton X-100 Treated Absorbance−Untreated Control Absorbance).

B. cereus = test: killing of B. cereus; assay type: cell-based; conditions: vs Mag(i+4)15
U937 cells = test: LDH release assay of U937 cells; assay type: cell-based; conditions: 10 and 25 μg/mL, 90 minutes, FIG. 6, FIG. 7
Experimental: as §1
(§2) LDH release assay: Cultured cells, including cancer cells and HUVEC cells, were plated in 96-well format (2×10^4 cells per well; including overnight incubation for adherent cells) and then treated with serial dilutions of Mag(i+4) peptides in a final volume in a final volume of […] and incubated at 37° C. for the indicated time period. The plates were spun down at 1500 rpm for 5 min at 4° C., and 80 μL of cell culture media was transferred to a clear plate (Corning), incubated with 80 μL of LDH reagent (Roche) for 15 min while shaking, and absorbance measured at 490 nm on a microplate reader (SpectraMax M5 Microplate Reader, Molecular Devices). LDH release assays, as tailored to specific cancer cell types, are exemplified below.

OCI-AML3 cells = test: LDH release assay of OCI-AML3 cells; assay type: cell-based, human; conditions: 10 and 25 μg/mL, 90 minutes, FIG. 6, FIG. 7
Experimental: as §1
(§3) LDH release assay of OCI-AML3 cells: OCI-AML3 cells are seeded in 96-well plates (2×10^4 cells per well) in RPMI medium containing 5% FBS and treated with structurally-stabilized peptides for 90 minutes. LDH release is quantified by incubating centrifuged (e.g., at 1500 rpm) cell culture medium 1:1 with LDH reagent (Roche), followed by absorbance measurement 490 nm on a microplate reader (Spectramax M5). Percent LDH release was normalized to 1% Triton.
as §2
as §3, with “were” for “are”, “with” for “with structurally-stabilized”, “peptides having the indicated amino acid sequences” for “peptides”, “was” for “is”, “centrifuged” for “centrifuged (e.g., at 1500 rpm)”, “Triton. Data was pooled from 2 technical replicates.” for “Triton.”

S. aureus = test: killing of S. aureus; assay type: cell-based; conditions: vs Mag(i+4)15

Q: What does the source list for `CC(C)[C@@H]1NC(=O)[C@@](C)(NC(=O)[C@H](C)NC(=O)[C@H](CCCCN)NC(=O)CNC(=O)[C@H](Cc2ccccc2)NC(=O)[C@H](CCCCN)NC(=O)[C@H](CCCCN)NC(=O)[C@H](CCCCN)NC(=O)[C@H](CO)NC(=O)[C@H](Cc2c[nH]cn2)NC(=O)[C@]2(C)CCCC=CCCC[C@](C)(NC(=O)CN)C(=O)NCC(=O)N[C@@H](CCCCN)C(=O)N[C@@H](Cc3ccccc3)C(=O)N2)CCCC=CCCC[C@@](C)(C(=O)N[C@@H](C)C(=O)N[C@@H](CCCCN)C(=O)N[C@@H](CCCCN)C(N)=O)NC(=O)[C@H](CCC(=O)O)NC(=O)CNC1=O` [Mag(i+4)1,15 (A9K, B21A, N22K, S23K), GX1GKFX2HSKKKFGKAX3VGEX4AKK] (H-G[S5]GKF[S5]HSKKKFGKA[S5]VGE[S5]AKK-NH2; staple 2-6, 16-20)?
A: EC50 of leukemia cell lysis (LDH release) [1]: 11.5 to 28.2 µg/mL; toxicity (gross toxicity, red cell hemolysis, kidney epithelium) [2]: without gross toxicity, red cell hemolysis or damage to kidney epithelium

Q: Which RBC lysis (red blood cells (RBCs)) does the source give for `CCCC[C@H](NC(=O)[C@@H](NC(=O)[C@H](CCC(=O)O)NC(=O)CNC(=O)[C@@H](NC(=O)[C@H](Cc1ccccc1)NC(=O)[C@H](C)NC(=O)[C@H](CCCCN)NC(=O)CNC(=O)[C@H](Cc1ccccc1)NC(=O)[C@]1(C)CCCC=CCCC[C@](C)(NC(=O)[C@H](CC(C)C)NC(=O)[C@H](Cc2ccccc2)NC(=O)[C@H](CCCCN)NC(=O)CNC(=O)[C@@H](NC(=O)CN)[C@@H](C)CC)C(=O)N[C@@H](CO)C(=O)N[C@@H](C)C(=O)N[C@@H](CCCCN)C(=O)N1)C(C)C)[C@@H](C)CC)C(=O)N[C@@H](CC(N)=O)C(=O)N[C@@H](CO)C(N)=O` [Mag(i+4)6, GIGKFLX1SAKX2FGKAFVGEIBNS] (H-GIGKFL[S5]SAK[S5]FGKAFVGEI[Nle]NS-NH2; staple 7-11) here?
A: no effect on any cell type

Q: Which RBC lysis (red blood cells (RBCs)) does the source give for `CCCC[C@@H]1NC(=O)[C@H]([C@@H](C)CC)NC(=O)[C@@](C)(NC(=O)CNC(=O)[C@@H](NC(=O)[C@H](Cc2ccccc2)NC(=O)[C@H](C)NC(=O)[C@H](CCCCN)NC(=O)CNC(=O)[C@H](Cc2ccccc2)NC(=O)[C@H](CCCCN)NC(=O)[C@H](CCCCN)NC(=O)[C@H](C)NC(=O)[C@H](CO)NC(=O)[C@H](Cc2c[nH]cn2)NC(=O)[C@H](CC(C)C)NC(=O)[C@H](Cc2ccccc2)NC(=O)[C@H](CCCCN)NC(=O)CNC(=O)[C@@H](NC(=O)CN)[C@@H](C)CC)C(C)C)CCCC=CCCC[C@@](C)(C(N)=O)NC(=O)[C@H](CC(N)=O)NC1=O` [Mag(i+4)18, GIGKFLHSAKKFGKAFVGX1IBNX2] (H-GIGKFLHSAKKFGKAFVG[S5]I[Nle]N[S5]-NH2; staple 19-23) here?
A: lytic to all three cell types

Q: For “GKGKFLHSAKKFGKAX1VGEX2BNS [Mag(i+4)15 (I2K)]”, which “killing of B. cereus compared to the parent compound” value (B. cereus) is on record?
A: substantially impaired

Q: What about the “cancer cell lysis by LDH release, compared with parent Mag(i+4)15” value (U937 cells) of the same compound?
A: retain substantial, if not all, oncolytic activity

Q: And the “cancer cell lysis by LDH release, compared with parent Mag(i+4)15” value (OCI-AML3 cells)?
A: retain substantial, if not all, oncolytic activity

Q: And the “killing of S. aureus compared to the parent compound” value (S. aureus)?
A: substantially impaired

Q: Which results are given for “KIGKFLHSAKKFGKAX1VGEX2BNS [Mag(i+4)15 (G1K)]”?
A: killing of B. cereus compared to the parent compound (B. cereus): substantially impaired; cancer cell lysis by LDH release, compared with parent Mag(i+4)15 (U937 cells): retain substantial, if not all, oncolytic activity; cancer cell lysis by LDH release, compared with parent Mag(i+4)15 (OCI-AML3 cells): retain substantial, if not all, oncolytic activity; killing of S. aureus compared to the parent compound (S. aureus): substantially impaired
